Experimental data reported in US20250188082A1, “Use of Hypoxanthine Compound In Preparation of Drug For Treating Pulmonary Fibrosis” (Sichuan Yiasuo Pharmaceutical Technology Co., Ltd., priority 2022, published 2025).

Assays:
Format in all cases: in vivo, C57BL/6 mice
[1] = test system: Streptococcus pneumoniae-induced pulmonary fibrosis model; test: Streptococcus pneumoniae-induced pulmonary fibrosis model; settings: Streptococcus pneumoniae + bleomycin, 120 mg/kg/d intragastric, 14 days; for Leucocyte / Lymphocyte / Neutrophil: blood, Day 15, 3 times every day, from one week after model; for Ashcroft scores: lung tissue HE staining
[2] = test system: influenza A virus-induced pulmonary fibrosis model (FM1 strain of influenza A (H1N1) virus); test: Influenza A virus-induced pulmonary fibrosis model; settings: 120 mg/kg/d intragastric, 14 days; for Ashcroft scores: influenza A virus + bleomycin, lung tissue HE; for IL-1β / IL-6 / NF-κB / TNF-α: serum, influenza A (H1N1) FM1 + bleomycin, from two weeks after model
Source text: Experimental method: an in-vivo influenza A virus-induced pulmonary fibrosis model was established: C57BL/6 mice (with weights being 22-25 g) were randomly and evenly divided into a plurality of groups, including blank control group, model group, Nintedanib positive control group, hypoxanthine analogue A group, hypoxanthine analogue B group, hypoxanthine analogue C group, compound 1 group, compound 2 group . . . compound 12 group, with 9 mice in each group. On Day 1, the mice in blank control group were instilled with normal saline nasally, and the mice in other groups were all infected with a FM1 strain of an influenza A (H1N1) virus 30 (μL) through nasal instillation. On Day 2, the mice received 5 mg/kg bleomycin through tracheas to induce their pulmonary fibrosis. After the model was established for two weeks, the mice in each group were intragastrically administrated for intervention for consecutive 14 days; the mice in blank control group and model group intragastrically received the same dosage of the normal saline as those in drug groups; the mice in Nintedanib positive control group received Nintedanib (120 mg/kg); the mice in hypoxanthine analogue A group, hypoxanthine analogue B group and hypoxanthine analogue C group respectively received hypoxanthine analogue A (120 mg/kg/d), hypoxanthine analogue B (120 mg/kg/d) and hypoxanthine analogue C (120 mg/kg/d); and the mice in compound 1 group, compound 2 group . . . compound 12 group respectively received compound 1 (120 mg/kg/d), compound 2 (120 mg/kg/d) . . . compound 12 (120 mg/kg/d) prepared in example 1. After administration for consecutive 14 days, the mice were observed every day, and their weights and death conditions were recorded. After administration, blood was taken from eyeballs for immediately detecting the expression levels of NF-κB, TNF-α, IL-1 and IL-6 in serum, and lung tissues were taken for HE detection and Ashcroft scoring.

[3] = test system: novel coronavirus-induced pulmonary fibrosis model (COVID-19 novel coronavirus strains); test: Novel coronavirus-induced pulmonary fibrosis model; settings: 120 mg/kg/d intragastric, 14 days; for Ashcroft scores: novel coronavirus + bleomycin, lung tissue HE; for IL-1β / IL-6 / NF-κB / TNF-α: serum, COVID-19 novel coronavirus + bleomycin, from two weeks after model
Source text: Experimental method: an in-vivo novel coronavirus-induced pulmonary fibrosis model was established: C57BL/6 mice (with weights being 22-25 g) were randomly and evenly divided into a plurality of groups, including blank control group, model group, Nintedanib positive control group, hypoxanthine analogue A group, hypoxanthine analogue B group, hypoxanthine analogue C group, compound 1 group, a compound 2 group . . . compound 12 group, with 9 mice in each group. On Day 1, the mice in blank control group were instilled with normal saline nasally, and the mice in other groups were all infected with COVID-19 novel coronavirus strains (30 μL) through nasal instillation. On Day 2, the mice received 5 mg/kg bleomycin through tracheas to induce their pulmonary fibrosis. After the model was established for two weeks, the mice in each group were intragastrically administrated for intervention for consecutive 14 days; the mice in blank control group and model group intragastrically received the same dosage of normal saline as those in drug groups; the mice in Nintedanib positive control group received Nintedanib (120 mg/kg); the mice in hypoxanthine analogue A group, hypoxanthine analogue B group and hypoxanthine analogue C group respectively received hypoxanthine analogue A (120 mg/kg/d), hypoxanthine analogue B (120 mg/kg/d) and hypoxanthine analogue C (120 mg/kg/d); and the mice in compound 1 group, compound 2 group . . . compound 12 group respectively received compound 1 (120 mg/kg/d), compound 2 (120 mg/kg/d) . . . compound 12 (120 mg/kg/d) prepared in example 1. After administration for consecutive 14 days, the mice were observed every day, and their weights and death conditions were recorded. After administration, blood was taken from eyeballs for immediately detecting the expression levels of NF-κB, TNF-α, IL-1 and IL-6 in serum, and lung tissues were taken for HE detection and Ashcroft scoring.

[4] = test system: bleomycin-induced pulmonary fibrosis model; test: Advanced pulmonary fibrosis: bleomycin-induced model, dosing from three weeks after modelling; settings: advanced pulmonary fibrosis, 120 mg/kg/d intragastric, 14 days, from three weeks after model; for Leucocyte / Lymphocyte / Neutrophil: blood, Day 15, twice every day; for Ashcroft scores: lung tissue HE staining
[5] = test system: influenza B virus-induced pulmonary fibrosis model (influenza B (H7N9) virus); settings: 120 mg/kg/d intragastric, 14 days; for Ashcroft scores: influenza B virus + bleomycin, lung tissue HE; for IL-1β / NF-κB / TNF-α / IL-6: serum, from two weeks after model; for IL-1β / NF-κB / TNF-α: influenza B (H7N9) + bleomycin; for IL-6: influenza B + bleomycin

SMILES	Leucocyte [1]	Lymphocyte [1]	Neutrophil [1]	Ashcroft scores [1]	Ashcroft scores [2]	IL-1β [2] [pg/mL]	IL-6 [2] [pg/mL]	NF-κB [2] [pg/mL]	TNF-α [2] [pg/mL]	Ashcroft scores [3]	IL-1β [3] [pg/mL]	IL-6 [3] [pg/mL]	NF-κB [3] [pg/mL]	TNF-α [3] [pg/mL]	Leucocyte [4]	Ashcroft scores [5]	IL-1β [5] [pg/mL]	NF-κB [5] [pg/mL]	TNF-α [5] [pg/mL]	IL-6 [5] [pg/mL]	other results
CC(C)Oc1ncnc2[nH]cnc12 [Compound 1]	5.52 10^9/L	5.99 10^9/L	2.00 10^9/L	1.20	1.21	28.8	63.9	26.5	87.1	1.08	36.4	68.3	26.6	63.3	4.28 10^9/L	1.19	26.3	30.5	72.9	65.1	Lymphocyte [4]: 5.33 10^9/L; Neutrophil [4]: 1.37 10^9/L; Ashcroft scores [4]: 0.95
CC(C)n1cnc2c(=O)[nH]cnc21 [Compound 2]	5.48 10^9/L	5.95 10^9/L	1.83 10^9/L	1.09	1.25	27.1	62.7	25.5	87.3	1.12	35.1	66.0	23.5	64.8	4.16 10^9/L	1.09	26.6	29.5	72.6	65.4	Lymphocyte [4]: 5.29 10^9/L; Neutrophil [4]: 1.26 10^9/L; Ashcroft scores [4]: 0.88
CC(C)Oc1ncnc2c1ncn2C(C)C [Compound 3]	5.62 10^9/L	5.77 10^9/L	1.60 10^9/L	1.01	1.18	26.3	62.9	24.3	86.1	1.19	36.3	65.3	24.7	63.5	3.98 10^9/L	0.98	25.8	28.8	71.8	64.1	Lymphocyte [4]: 5.18 10^9/L; Neutrophil [4]: 1.19 10^9/L; Ashcroft scores [4]: 0.87
CC(C)Oc1ncnc2ncn(C(C)C)c12 [Compound 4]	6.99 10^9/L	6.84 10^9/L	1.51 10^9/L	1.29	1.29	29.6	65.1	27.4	89.8	1.50	37.2	64.5	25.2	65.9	4.26 10^9/L	1.17	27.6	29.3	73.9	66.7	Lymphocyte [4]: 5.63 10^9/L; Neutrophil [4]: 1.34 10^9/L; Ashcroft scores [4]: 1.24
CC(C)Oc1ncnc2nc[nH]c12 [Compound 5]	6.75 10^9/L	7.64 10^9/L	1.82 10^9/L	1.25	–	28.1	65.6	27.7	90.2	1.11	37.5	66.4	24.3	66.1	4.34 10^9/L	1.18	28.1	31.4	76.6	66.9	Lymphocyte [4]: 5.74 10^9/L; Neutrophil [4]: 1.36 10^9/L; Ashcroft scores [4]: 1.22
CC(C)n1cnc2nc[nH]c(=O)c21 [Compound 6]	5.91 10^9/L	7.55 10^9/L	1.88 10^9/L	1.27	1.26	28.5	66.1	27.8	90.3	1.34	38.7	67.1	21.2	68.3	4.58 10^9/L	1.14	27.2	32.4	75.3	65.6	Lymphocyte [4]: 5.94 10^9/L; Neutrophil [4]: 1.59 10^9/L; Ashcroft scores [4]: 1.19
COc1ncnc2c1ncn2C(C)C [Compound 7]	–	–	–	–	1.28	29.0	65.3	26.4	91.2	1.15	39.9	66.4	24.6	67.5	–	1.20	27.9	33.4	74.1	70.3	Leucocyte ([1]; 120 mg/kg/day): 6.39 10^9/L; Lymphocyte ([1]; 120 mg/kg/day): 7.72 10^9/L; Neutrophil ([1]; 120 mg/kg/day): 1.88 10^9/L; Ashcroft scores ([1]; 120 mg/kg/day): 1.29; Leucocyte ([4]; 120 mg/kg/day): 4.61 10^9/L; Lymphocyte ([4]; 120 mg/kg/day): 5.65 10^9/L; Neutrophil ([4]; 120 mg/kg/day): 1.44 10^9/L; Ashcroft scores ([4]; 120 mg/kg/day): 1.13
